We go through one compound from publication PMC3431965 (The Journal of organic chemistry, 2012).

The target in assay [1] is α-glucosidase (Saccharomyces cerevisiae). Kind of assay: Glycosidase inhibition assay, α-glucosidase. The class given is biochemical. The following applies: read-out: α-Glc IC50; substrate at Km.
The test system of assay [2] is human spermatogenesis. The following applies: cited from earlier work.
Assay [3] relates to spermatogenesis. The following applies: C57B1/6J-related mouse strains; cited from earlier work.

In the case of `CCCCN1C[C@H](O)[C@@H](O)[C@H](O)[C@H]1CO` [NB-DNJ, N-butyldeoxynojirimycin], in assay [1], the IC50 (as a rule, the concentration needed to halve the response being measured) came out at 1030 µM. Also, the “effects on human spermatogenesis” value in assay [2] is on record as “no discernible effects”. Further, the effect on spermatogenesis result in assay [3] is reported as “active”.
